Source: patent US8816095B2, “Na channels, disease, and related assays and compositions” (Georgetown University, priority 2008, dated 2014)

Assays:
site 2 of the VGSC = test: [3H]-BTX-B displacement assay at site 2; assay type: binding, rat; settings: for % [3H]-BTX Inhibition (40 μM) / % [3H]-BTX Displacement (40 μm): rat brain synaptoneurosomes; for % [3H]-BTX Inhibition (40 μM): Table 9; for % [3H]-BTX Displacement (40 μm): Table 13
human Nav1.2 = target: T1, human Nav1.2 (Homo sapiens, UniProt Q99250); test: hNav1.2 functional block, whole-cell patch clamp; assay type: cell-based
T1 construct: host or cells: HEK
Description: Of the 20 analogs tested, six had [^3H]-BTX displacement characteristics much greater then that of phenyloin (Table 7), see Schemes 5, 6, 7 and 8 for the chemical synthesis and structure of the tested compounds. Compound 26, having the greatest [^3H]-BTX displacement at 86% ([…]), was further tested for VGSC functional blocking ability in HEK cells stably expressing Nav1.2 (Table 8).
In addition the functional blocking ability of 9 was tested after site two affinities was confirmed. The potential reason for this increased blocking ability stems from the dansyl addition in a hydrophobically receptive region of the binding site in the VGSC (Anderson, J. D., et al. Mol. Cancer. Ther. 2003, 2, 1149-1154; Lenkowski, P et al. Neuropharmacology, 2007, 52, 1044-1054). This enhanced potency could be due to the dansyl substituent interacting with L1465 and 11469, located in S6 of domain III in the binding site, which are believed to be the source of hydrophobic receptivity 17. The ability to inhibit VGSC currents is an important property and represents functional blocking. The ability of CDPNS to inhibit sodium channel currents was assessed at 10 and 100 μM against human Nav1.2 by patch clamp assay (FIG. 10).
Human embryonic kidney cells (HEK) cells stably expressing human Nav1.2 were a kind gift from Dr. H. A. Hartmann (University of Baltimore, Md., USA) and were grown in DMEM/F12 media (Invitrogen, Corp, CA, USA) supplemented with 10% fetal bovine serum, penicillin (100 U/ml), streptomycin (100 μg/ml) and G418 (500 μg/ml; Sigma, Mo., USA). Cells were grown in a humidified atmosphere of 5% CO2 and 95% air at 37° C.
Sodium currents were recorded using the whole-cell configuration of the patch clamp recording technique with an Axopatch 200 amplifier (Axon Instruments, Foster City, Calif.). All voltage protocols were applied using pCLAMP 9 software (Axon, USA) and a Digidata 1322A (Axon, USA). Currents were amplified and low pass filtered (2 kHz) and sampled at 33 kHz. Borosilicate glass pipettes were pulled using a Brown-Flaming puller (model P87, Sutter Instruments Co, Novato, Calif.) and heat polished to produce electrode resistances of 0.5-1.5 MΩ when filled with the following electrode solution (in mM); CsCl 130, MgCl2 1, MgATP 5, BAPTA 10, HEPES 5 (pH adjusted to 7.4 with CsOH). Cells were plated on glass coverslips and superfused with solution containing the following composition; (in mM) NaCl 130, KCl 4, CaCl2 1, MgCl2 5, HEPES 5, and glucose 5 (pH adjusted to 7.4 with NaOH).
Compound 26 was prepared as 100 mM stock solutions in dimethyl sulfoxide (DMSO) and diluted to desired concentration in perfusion solution. The maximum DMSO concentration used was 0.1% and had no effect on current amplitude. All experiments were performed at room temperature (20-22° C.). After establishing whole-cell, a minimum series resistance compensation of 75% was applied. Sodium currents were elicited by a depolarizing step from a holding potential of −100 mV to +10 mV for a duration of 25 ms at 15 s intervals. Compound 26 was applied after a 3 min control period and continued until a steady state current amplitude was observed. All data represent percentage mean block±standard error of the mean (S.E.M.).

PC-3 cells [1] = test: PC-3 MTT cell viability assay; assay type: cell-based; settings: Homo sapiens, read-out: GI50 ± SEM (10 μM), DPH and JDA-3-135 previously determined
Excerpt: Following the determination that compound CDPNS inhibits the VGSCs that are present in androgen independent PC-3 cells, a 3-(4,5-Dimethylthiazol-2-yl)-2,5-diphenyltetrazolium bromide (MTT) cell viability assay was utilized to measure the ability of compound CDPNS to inhibit PC-3 cell growth via VGSC blockade. In this experiment data yielded from CDPNS was compared to previously determined DPH and JDA-3-135 antiproliferation data (Table 10).

PC-3 cells [2] = test: PC-3 cell growth inhibition assay (WST-8); assay type: cell-based; settings: Homo sapiens, WST-8, 48 hours
Description: The effect of compound 2 was studied on the proliferation of human androgen independent prostate cancer (PC-3) cells, using a cell viability assay with WST-8. […].
PC-3 cells were added to the wells of a 96 well plate at 7500 cells per well in 100 uL of RPMI medium with 10% serum and allowed to plate down overnight. The medium was then removed and replaced with serum free medium containing the appropriate concentration of drug. DMSO concentration was kept below 1%. At this time WST-8 cell counting reagent was added to the control (T=0) wells and allowed to incubate for 2 hours and the absorbance was read at 450 nm to determine the starting number of cells per well. The plates were incubated for 48 hours, the medium was removed and the wells were washed with 100 uL of PBS. The PBS was removed that the wells were filled with 110 uL of serum free RPMI media containing the WST-8 reagent. After two hours of incubation, the plates absorbance was read at 450 nm and normalized to the control value.

human prostate tissue = test: Staining of human prostate paraffin embedded tissue slices; settings: 100 μM
Description: The binding and localization of compound 26 in prostate and prostate cancer tissue was studied. Human prostate paraffin embedded tissue slices were stained with 100 μM of compound 26 and dansyl amine.

hNav1.2 = hNav1.2 (Homo sapiens, UniProt Q99250); settings: whole-cell patch clamp, hNav1.2 expressing HEK cells; read-out: hNav1.2 electrophysiology IC50; cited from earlier work
[3] = read-out: GI50 in PC3 prostate cancer cells

T1 sequence (Q99250 whole entry): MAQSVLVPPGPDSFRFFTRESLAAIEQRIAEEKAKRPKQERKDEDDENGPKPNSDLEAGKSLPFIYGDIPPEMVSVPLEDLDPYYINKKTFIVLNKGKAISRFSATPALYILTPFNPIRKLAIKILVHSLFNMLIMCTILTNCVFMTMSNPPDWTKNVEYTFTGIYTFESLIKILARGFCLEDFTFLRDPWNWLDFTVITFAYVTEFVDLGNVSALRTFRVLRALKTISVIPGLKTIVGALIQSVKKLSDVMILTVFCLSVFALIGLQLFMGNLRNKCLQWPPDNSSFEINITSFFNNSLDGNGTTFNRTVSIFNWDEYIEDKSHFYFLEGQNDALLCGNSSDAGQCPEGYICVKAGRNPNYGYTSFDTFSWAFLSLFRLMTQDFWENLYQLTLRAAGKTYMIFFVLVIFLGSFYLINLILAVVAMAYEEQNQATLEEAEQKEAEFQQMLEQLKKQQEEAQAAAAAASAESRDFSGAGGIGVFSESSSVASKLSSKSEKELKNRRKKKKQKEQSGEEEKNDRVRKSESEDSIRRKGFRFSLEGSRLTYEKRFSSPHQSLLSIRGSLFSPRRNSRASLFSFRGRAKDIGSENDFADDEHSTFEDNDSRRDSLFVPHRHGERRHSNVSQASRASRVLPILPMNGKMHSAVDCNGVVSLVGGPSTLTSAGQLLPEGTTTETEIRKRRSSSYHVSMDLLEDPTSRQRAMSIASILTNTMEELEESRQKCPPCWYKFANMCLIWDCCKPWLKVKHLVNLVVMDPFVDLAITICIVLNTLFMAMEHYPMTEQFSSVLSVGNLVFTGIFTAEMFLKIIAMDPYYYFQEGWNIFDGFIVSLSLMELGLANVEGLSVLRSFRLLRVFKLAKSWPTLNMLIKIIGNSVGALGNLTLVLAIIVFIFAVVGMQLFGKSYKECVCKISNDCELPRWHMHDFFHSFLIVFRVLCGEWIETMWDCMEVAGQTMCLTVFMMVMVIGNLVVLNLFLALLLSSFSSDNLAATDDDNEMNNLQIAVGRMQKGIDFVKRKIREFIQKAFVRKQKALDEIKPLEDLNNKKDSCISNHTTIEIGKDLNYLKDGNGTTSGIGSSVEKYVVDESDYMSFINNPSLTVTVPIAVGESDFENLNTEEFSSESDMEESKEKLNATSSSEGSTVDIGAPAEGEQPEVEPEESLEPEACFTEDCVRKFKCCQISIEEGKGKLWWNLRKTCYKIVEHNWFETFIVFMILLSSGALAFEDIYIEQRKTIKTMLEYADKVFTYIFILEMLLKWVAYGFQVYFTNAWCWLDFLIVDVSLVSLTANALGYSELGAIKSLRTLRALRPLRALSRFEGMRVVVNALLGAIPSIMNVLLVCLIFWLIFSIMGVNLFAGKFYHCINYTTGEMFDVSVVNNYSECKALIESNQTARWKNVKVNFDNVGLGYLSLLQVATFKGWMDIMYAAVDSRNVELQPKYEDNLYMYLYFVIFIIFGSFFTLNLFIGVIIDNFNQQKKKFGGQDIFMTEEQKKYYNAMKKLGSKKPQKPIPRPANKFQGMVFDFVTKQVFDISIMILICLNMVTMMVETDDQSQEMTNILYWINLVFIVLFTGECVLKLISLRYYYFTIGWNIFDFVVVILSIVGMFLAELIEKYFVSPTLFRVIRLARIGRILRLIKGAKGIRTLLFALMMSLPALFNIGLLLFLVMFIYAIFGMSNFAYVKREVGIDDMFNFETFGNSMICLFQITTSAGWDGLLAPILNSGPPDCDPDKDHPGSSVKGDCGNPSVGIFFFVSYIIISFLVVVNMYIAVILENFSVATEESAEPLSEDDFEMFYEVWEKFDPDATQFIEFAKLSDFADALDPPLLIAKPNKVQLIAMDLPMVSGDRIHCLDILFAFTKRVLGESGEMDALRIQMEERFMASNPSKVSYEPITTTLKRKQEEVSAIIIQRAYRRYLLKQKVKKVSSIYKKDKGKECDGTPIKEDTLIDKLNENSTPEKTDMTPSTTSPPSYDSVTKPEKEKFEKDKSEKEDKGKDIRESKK
hNav1.2, sequence (Q99250 whole entry): as above

Row | Compound | % [3H]-BTX Inhibition (40 μM) (site 2 of the VGSC) [%] | % [3H]-BTX Displacement (40 μm) (site 2 of the VGSC) [%] | [3H]-BTX-B Binding Data, Displacement % (site 2 of the VGSC; Screen at 40 μM, 2 replicates, referenced to Aconitine) [%] | % hNaV 1.2 Functional Block (10 μM) (human Nav1.2; Table 8) [%] | % hNaV 1.2 Functional Block (10 μM) (human Nav1.2; Table 8, listed as CDPNS) [%] | % hNaV 1.2 Functional Block (10 μM) (human Nav1.2; Table 9) [%] | % hNaV 1.2 Functional Block (10 μM) (human Nav1.2; Table 9, listed as CDPNS) [%] | GI50 (PC-3 cells [1]) [µM] | GI50 (PC-3 cells [2]; [3]) [µM] | GI50 (PC-3 cells [2]; read-out: PC3 GI50 (μg)) [µM] | binding to human prostate tissue (microscopy) (human prostate tissue) | % Nav 1.2 Functional Block (10 μm) (human Nav1.2; 10 μm, Table 13) [%] | IC50 (hNav1.2) [µM]
1 | CN(C)c1cccc2c(S(=O)(=O)NCCCCCC3(c4cccc(Cl)c4)NC(=O)NC3=O)cccc12 (centres unmarked) [Compound 26, N-(5-(4-(3-chlorophenyl)-2,5-dioxoimidazolidin-4-yl)pentyl)-5-(dimethylamino)naphthalene-1-sulfonamide] | 86.4 | 86.4 | 86 | 58.9±4.1 | 58.9±4.15 | 58.9 ± 4.1 | 58.9±4.1 | 36 | 9.95 ± 0.07 | 9.95 ± 0.07 | visible due to binding |  | 
2 | CCCCCCCC1(c2cccc(Cl)c2)NC(=O)NC1=O (centres unmarked) [JDA-3-135] | 69.6 | 69.6 |  | 30.5 ± 5.1 |  | 30.5 ± 5.1 |  | 18.6 ± 1.5 | 18.97 ± 0.04 | 18.97 ± 0.04 |  | 30.5 ± 5.1 | 13.9
